Test results from patent publication US8247211B2, “Glycopeptide antibiotics” (American Cyanamid Company, priority 2001, dated 2012).
Converted amounts (≈) assume the structure as drawn.

Experiments:
Experiment in all cases: In vitro antibacterial evaluation: minimum inhibitory concentration (MIC), broth dilution method
Assay type in all cases: cell-based
Staphylococcus sp. = test system: Staphylococcus sp.
Outline: (§1)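 Test strains, among them recent clinical isolates carrying methicillin, penicillin and/or vancomycin resistance, were inoculated at 5×10^5 CFU/mL. A broth dilution series spanning 64-0.06 μg/mL in Muller-Hinton II […] (NCCLS M7-A2) defined the MIC as the lowest growth-inhibiting concentration.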

Escherichia coli = details: 18 hours at 35° C.
Outline: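 Broth dilution per NCCLS M7-A2 in Muller-Hinton II […], inoculum 5×10^5 CFU/mL, antibiotic tested over 64-0.06 μg/mL. MIC is taken as the lowest concentration that inhibits growth. Panel includes recent clinical isolates resistant to methicillin, penicillin and/or vancomycin.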

Enterococcus sp. = details: 18 hours at 35° C.
Outline: as §1

Streptococcus sp. = details: 18 hours at 35° C.
Outline: as §1

[1] = broth dilution, inoculum 5×10^5 CFU/mL

- MIC Staphylococcus aureus (ATCC 29213) (Staphylococcus sp.; strain ATCC 29213): 2 µg/mL (≈ 1.41 µM)
- MIC Staphylococcus aureus (GC 1131) (Staphylococcus sp.; strain GC 1131): 2 µg/mL (≈ 1.41 µM)
- MIC Staphylococcus aureus (GC 3051) (Staphylococcus sp.; strain GC 3051): 2 µg/mL (≈ 1.41 µM)
- MIC Staphylococcus aureus (GC 3053) (Staphylococcus sp.; strain GC 3053): 2 µg/mL (≈ 1.41 µM)
- MIC Staphylococcus aureus (GC 4541) (Staphylococcus sp.; strain GC 4541): 1 µg/mL (≈ 0.707 µM)
- MIC Staphylococcus aureus (GC 4542) (Staphylococcus sp.; strain GC 4542): 1 µg/mL (≈ 0.707 µM)
- MIC Staphylococcus aureus-SMITH (GC 4543) (Staphylococcus sp.; strain GC 4543): 2 µg/mL (≈ 1.41 µM)
- MIC Staphylococcus aureus (GC 4544) (Staphylococcus sp.; strain GC 4544): 2 µg/mL (≈ 1.41 µM)
- MIC Staphylococcus aureus (GC 4545) (Staphylococcus sp.; strain GC 4545): 1 µg/mL (≈ 0.707 µM)
- MIC Coagulase Negative Staphylococcus (GC 4547) (Staphylococcus sp.; strain GC 4547): 2 µg/mL (≈ 1.41 µM)
- MIC Coagulase Negative Staphylococcus (GC 4548) (Staphylococcus sp.; strain GC 4548): 1 µg/mL (≈ 0.707 µM)
- MIC Coagulase Negative Staphylococcus (GC 4549) (Staphylococcus sp.; strain GC 4549): 1 µg/mL (≈ 0.707 µM)
- MIC Coagulase Negative Staphylococcus (GC 4551) (Staphylococcus sp.; strain GC 4551): 2 µg/mL (≈ 1.41 µM)
- MIC Coagulase Negative Staphylococcus (GC 6257) (Staphylococcus sp.; strain GC 6257): 1 µg/mL (≈ 0.707 µM)
- MIC Escherichia coli (ATCC 25922) (Escherichia coli; Escherichia coli (ATCC 25922)): 32 µg/mL (≈ 22.6 µM)
- MIC Escherichia coli (GC 4559) (Escherichia coli; Escherichia coli (GC 4559)): 16 µg/mL (≈ 11.3 µM)
- MIC Escherichia coli (GC 4560) (Escherichia coli; Escherichia coli (GC 4560)): 2 µg/mL (≈ 1.41 µM)
- MIC Enterococcus avium (GC 4558) (Enterococcus sp.; Enterococcus avium (GC 4558)): 4 µg/mL (≈ 2.83 µM)
- MIC Enterococcus faecalis (ATCC 29212) (Enterococcus sp.; Enterococcus faecalis (ATCC 29212)): 4 µg/mL (≈ 2.83 µM)
- MIC Enterococcus faecalis (GC 2242) (Enterococcus sp.; Enterococcus faecalis (GC 2242)): 4 µg/mL (≈ 2.83 µM)
- MIC Enterococcus faecalis (GC 2691) (Enterococcus sp.; Enterococcus faecalis (GC 2691)): 4 µg/mL (≈ 2.83 µM)
- MIC Enterococcus faecalis (GC 3059) (Enterococcus sp.; Enterococcus faecalis (GC 3059)): 4 µg/mL (≈ 2.83 µM)
- MIC Enterococcus faecalis (GC 4552) (Enterococcus sp.; Enterococcus faecalis (GC 4552)): 4 µg/mL (≈ 2.83 µM)
- MIC Enterococcus faecalis (GC 4553) (Enterococcus sp.; Enterococcus faecalis (GC 4553)): 4 µg/mL (≈ 2.83 µM)
- MIC Enterococcus faecalis (GC 4554) (Enterococcus sp.; Enterococcus faecalis (GC 4554)): 4 µg/mL (≈ 2.83 µM)
- MIC Enterococcus faecalis (GC 6189) (Enterococcus sp.; Enterococcus faecalis (GC 6189)): 4 µg/mL (≈ 2.83 µM)
- MIC Enterococcus faecium (GC 2243) (Enterococcus sp.; Enterococcus faecium (GC 2243)): 4 µg/mL (≈ 2.83 µM)
- MIC Enterococcus faecium (GC 4556) (Enterococcus sp.; Enterococcus faecium (GC 4556)): 4 µg/mL (≈ 2.83 µM)
- MIC Enterococcus faecium (GC 4557) (Enterococcus sp.; Enterococcus faecium (GC 4557)): 4 µg/mL (≈ 2.83 µM)
- MIC Enterococcus avium (GC 4558) (Enterococcus sp.; [1]): 4 µg/mL (≈ 2.83 µM)
- MIC Enterococcus faecalis (ATCC 29212) (Enterococcus sp.; [1]): 4 µg/mL (≈ 2.83 µM)
- MIC Enterococcus faecalis (GC 2242) (Enterococcus sp.; [1]): 4 µg/mL (≈ 2.83 µM)
- MIC Enterococcus faecalis (GC 2691) (Enterococcus sp.; [1]): 4 µg/mL (≈ 2.83 µM)
- MIC Enterococcus faecalis (GC 3059) (Enterococcus sp.; [1]): 4 µg/mL (≈ 2.83 µM)
- MIC Enterococcus faecalis (GC 4552) (Enterococcus sp.; [1]): 4 µg/mL (≈ 2.83 µM)
- MIC Enterococcus faecalis (GC 4553) (Enterococcus sp.; [1]): 4 µg/mL (≈ 2.83 µM)
- MIC Enterococcus faecalis (GC 4554) (Enterococcus sp.; [1]): 4 µg/mL (≈ 2.83 µM)
- MIC Enterococcus faecalis (GC 6189) (Enterococcus sp.; [1]): 4 µg/mL (≈ 2.83 µM)
- MIC Enterococcus faecium (GC 2243) (Enterococcus sp.; [1]): 4 µg/mL (≈ 2.83 µM)
- MIC Enterococcus faecium (GC 4556) (Enterococcus sp.; [1]): 4 µg/mL (≈ 2.83 µM)
- MIC Enterococcus faecium (GC 4557) (Enterococcus sp.; [1]): 4 µg/mL (≈ 2.83 µM)
- MIC Streptococcus agalactiae (GC 4564) (Streptococcus sp.; Streptococcus agalactiae (GC 4564)): 0.5 µg/mL (≈ 0.353 µM)
- MIC Streptococcus pneumoniae (ATCC 6301) (Streptococcus sp.; Streptococcus pneumoniae (ATCC 6301)): 0.25 µg/mL (≈ 0.177 µM)
- MIC Streptococcus pneumoniae (GC 1894) (Streptococcus sp.; Streptococcus pneumoniae (GC 1894)): <0.06 µg/mL
- MIC Streptococcus pneumoniae (GC 4565) (Streptococcus sp.; Streptococcus pneumoniae (GC 4565)): 0.25 µg/mL (≈ 0.177 µM)
- MIC Streptococcus pyogenes (GC 4563) (Streptococcus sp.; Streptococcus pyogenes (GC 4563)): 0.5 µg/mL (≈ 0.353 µM)
- MIC Streptococcus agalactiae (GC 4564) (Streptococcus sp.; [1]): 0.5 µg/mL (≈ 0.353 µM)
- MIC Streptococcus pneumoniae (ATCC 6301) (Streptococcus sp.; [1]): 0.25 µg/mL (≈ 0.177 µM)
- MIC Streptococcus pneumoniae (GC 1894) (Streptococcus sp.; [1]): <0.06 µg/mL
- MIC Streptococcus pneumoniae (GC 4565) (Streptococcus sp.; [1]): 0.25 µg/mL (≈ 0.177 µM)
- MIC Streptococcus pyogenes (GC 4563) (Streptococcus sp.; [1]): 0.5 µg/mL (≈ 0.353 µM)
Compound: CC(c1ccccc1)C1NC(=O)CNC(=O)C(CO)NC(=O)C(C(O)C2CNC(=N)N2C2OC(CO)C(O)C(O)C2O)NC(=O)C(C(O)C2CNC(=N)N2)NC(=O)C(Cc2ccc(OC3OC(CO)C(OC4OC5COC(C)(c6ccc(F)cc6)OC5C(O)C4O)C(O)C3O)cc2)NC1=O (stereo not drawn) [Example 216, Cyclo[glycyl-β-methylphenylalanyl-O-[4-O-[4,6-O-(4-fluoro-α-methylbenzylidene)hexopyranosyl]hexopyranosyl]tyrosyl-3-(2-iminoimidazolidin-4-yl)seryl-3-(3-hexopyranosyl-2-iminoimidazolidin-4-yl)serylseryl]]
- MIC Staphylococcus haemolyticus (GC 4546) (Staphylococcus sp.; strain GC 4546): 1 µg/mL (≈ 0.707 µM)
